In patent US20100190187A1, “Screening Assays for Antagonists and Analyses of Cardiac Hypertrophy” (The Regents of the University of Michigan Office of …, priority 2006, published 2010):

Each molecule was assayed against T1, VDRtt (Rattus norvegicus, UniProt P13053) (assay: Competition with [3H] 1α,25(OH)2 vitamin D3 for binding to rat heart membrane preparations). Details: radioligand binding experiments, FIGS. 6 and 7.
T1 construct: from tissue; host or cells: rat heart ventricle, crude myocardial membranes (7,700-40,000 x g pellet)
T1 sequence (P13053 1-423): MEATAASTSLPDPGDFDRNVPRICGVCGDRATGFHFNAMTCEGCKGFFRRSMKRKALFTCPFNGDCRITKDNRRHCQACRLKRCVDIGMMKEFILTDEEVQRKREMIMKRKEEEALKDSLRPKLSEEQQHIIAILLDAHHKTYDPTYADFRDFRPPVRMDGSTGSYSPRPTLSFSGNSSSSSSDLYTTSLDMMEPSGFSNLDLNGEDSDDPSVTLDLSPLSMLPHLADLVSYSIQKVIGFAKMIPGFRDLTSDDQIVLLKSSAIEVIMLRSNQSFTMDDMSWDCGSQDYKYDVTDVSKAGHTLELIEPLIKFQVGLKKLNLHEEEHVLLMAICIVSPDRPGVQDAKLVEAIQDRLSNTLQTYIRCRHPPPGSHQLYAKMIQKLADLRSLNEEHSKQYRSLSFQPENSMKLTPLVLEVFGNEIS
Description: Crude myocardial membranes were prepared as follows: whole hearts were removed from three month old female Sprague-Dawley rats and were cannulated and perfused two times with 10 mls ice-cold DPBS then once with 3 mls of ice-cold TKED lysis buffer (50 mM Tris-HCl, 150 mM KCl, 1.5 mM EDTA, 10 mM dithiothreitol, pH7.4 and a 1/100 dilution of Sigma Protease Inhibitor Cocktail [P8340]). Ventricles were cut away from atria and connective tissue and then minced, transferred to a 13 ml round-bottom Sarstedt tube and washed two times in 10 mls TKED lysis buffer by spinning briefly at full speed in a clinical centrifuge then aspirating. Tissue was kept ice-cold as much as possible. Washed minced ventricle tissue was then homogenized on ice with a Tekmar Tissuemizer in 5 volumes (˜5 mls) of TKED lysis buffer using 10 strokes at setting 30 followed by 5 strokes at setting 50. The resulting homogenate was transferred to a 15 ml Corex tube and centrifuged in a Beckman JA-20 rotor at 8,000 rpm (7,700 g) for 15 minutes at 4° C. The supernatant was transferred to a new 15 ml Corex tube and centrifuged in a Beckman JA-20 rotor at 18,200 rpm (40,000 g) for 25 minutes at 4° C. The resulting membrane pellet was washed once in a few mls TKED lysis buffer, resuspended in 0.5 mls TKED lysis buffer then homogenized with 3 strokes of a 2 ml Wheaton Potter-Elvejhem tissue grinder.
Ligand binding assays to determine the ability of competitors or test compounds to compete with [^3H] […] 1α,25(OH)2 vitamin D3 (specific activity 176 Ci/mmol) and various concentrations of competitor or test compound. Nonspecific binding is determined in the presence of cold 1α,25(OH)2 Vitamin D3 (2 μM) for vehicle and each competitor or test compound. Assays are performed at room temperature for 60 minutes. Reactants are then filtered over glass fiber filters (Whatman GF-C) and washed three times with 5 mls ice-cold TKEDN binding buffer. […] Tritiated [^3H] 1α,25(OH)2 vitamin D3 can be obtained from G.E. Healthcare and dried using a nitrogen evaporator and resuspended in ethanol. 1α,25(OH)2 Vitamin D3 and competitors or test compounds can be obtained from Sigma-Aldrich and diluted in ethanol. Vitamin D5 was obtained from the University of Illinois and was diluted in ethanol.

Row | SMILES | binding of vitamin D analogs to VDRtt
1 | C=C1/C(=C\C=C2/CCC[C@]3(C)[C@@H]([C@H](C)CCC(O)C(C)(C)O)CC[C@@H]23)C[C@@H](O)CC1O (stereo partly shown) [1,24,25 trihydroxyvitamin D3] | binds with various affinities
2 | C=C1CCC(O)C/C1=C\C=C1\CCCC2(C)C1CCC2C(C)CCC(O)C(C)(C)O (stereo not shown) [24,25 dihydroxyvitamin D3] | binds with various affinities
3 | C=C1CC[C@H](O)C/C1=C/C=C1\CCC[C@]2(C)[C@@H]([C@H](C)CCCC(C)(C)O)CC[C@@H]12 [25-hydroxyvitamin D3] | binds with various affinities
4 | C=C1CC[C@H](O)C/C1=C/C=C1\CCC[C@]2(C)[C@@H]([C@H](C)CC[C@@H](CC)C(C)C)CC[C@@H]12 [Vitamin D5] | binds with various affinities
